Literature values in US8367112B2, “Nanoparticulate carverdilol formulations” (Alkermes Pharma Ireland Limited, priority 2006, dated 2013).
Where two headings read alike, the source gives them in different places.

Key:
[1] = in vivo, po

Compound	solubility (95% ethanol)	solubility (dimethylsulfoxide)	solubility (ethyl ether)	solubility (gastric fluid (simulated, TS, pH 1.1))	solubility (intestinal fluid (simulated, TS without pancreatin, pH 7.5))	solubility (isopropanol)	solubility (methanol)	solubility (methylene chloride)	solubility (water)	apparent mean terminal elimination half-life [1] [h]	plasma levels relative to S(−)-carvedilol [1]
COc1ccccc1OCCNCC(O)COc1cccc2[nH]c3ccccc3c12 (racemic) [carvedilol, (±)-1-(Carbazol-4-yloxy)-3-[[2-(o-methoxyphenoxy)ethyl]amino]-2-propanol]	sparingly soluble	freely soluble	slightly soluble	practically insoluble	practically insoluble	sparingly soluble	soluble	soluble	practically insoluble		
COc1ccccc1OCCNC[C@H](O)COc1cccc2[nH]c3ccccc3c12 (single isomer, unassigned) [S(−)-enantiomer, S(−)-carvedilol]										7 to 11	
COc1ccccc1OCCNC[C@@H](O)COc1cccc2[nH]c3ccccc3c12 [R(+)-carvedilol]										5 to 9	2-3 times higher
